What was measured:
Italian ryegrass [1] = assay: Test E preemergence; type: in vivo, Lolium multiflorum; conditions: for Ryegrass, Italian plant response rating: scale 0 to 100 (0 no effect, 100 complete control); for Plant response rating, Ryegrass, Italian: scale 0 to 100, 0 no effect, 100 complete control
Outline: (§1)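 Test chemicals formulated in a non-phytotoxic solvent mixture containing a surfactant were applied preemergence to seeds in silt loam soil or postemergence to plants at the 1- to 4-leaf stage in potting mix. After 14 to 21 days in a greenhouse, injury was visually rated against controls on a 0-100 scale (0 = no effect, 100 = complete control).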

ragweed = assay: Test E preemergence; type: in vivo, Ambrosia elatior; conditions: for Ragweed plant response rating: scale 0 to 100 (0 no effect, 100 complete control); for Plant response rating, Ragweed: scale 0 to 100, 0 no effect, 100 complete control
Outline: as §1

field bindweed = assay: Test E postemergence; type: in vivo, Convolvulus arvensis; conditions: Postemergence, scale 0 to 100
Outline: as §1

soybean = assay: Test E preemergence; type: in vivo, Glycine max; conditions: for Soybean plant response rating: scale 0 to 100 (0 no effect, 100 complete control); for Plant response rating, Soybean: scale 0 to 100, 0 no effect, 100 complete control
Outline: as §1

Brazilian crabgrass [2] = assay: Test E preemergence; type: in vivo, Digitaria horizontalis; conditions: for Crabgrass, Brazil plant response rating: scale 0 to 100 (0 no effect, 100 complete control); for Plant response rating, Crabgrass, Brazil: scale 0 to 100, 0 no effect, 100 complete control
Outline: as §1

Italian ryegrass [3] = assay: Test E postemergence; type: in vivo, Lolium multiflorum; conditions: Postemergence, scale 0 to 100
Outline: as §1

palmer pigweed = assay: Test E preemergence; type: in vivo, Amaranthus palmeri; conditions: for Pigweed, Palmer plant response rating: scale 0 to 100 (0 no effect, 100 complete control); for Plant response rating, Pigweed, Palmer: scale 0 to 100, 0 no effect, 100 complete control
Outline: as §1

giant foxtail = assay: Test E preemergence; type: in vivo, Setaria faberii; conditions: for Foxtail, Giant plant response rating: scale 0 to 100 (0 no effect, 100 complete control); for Plant response rating, Foxtail, Giant: scale 0 to 100, 0 no effect, 100 complete control
Outline: as §1

morningglory = assay: Test E preemergence; type: in vivo, Ipomoea coccinea; conditions: for Morningglory plant response rating: scale 0 to 100 (0 no effect, 100 complete control); for Plant response rating, Morningglory: scale 0 to 100, 0 no effect, 100 complete control
Outline: as §1

velvetleaf = assay: Test E preemergence; type: in vivo, Abutilon theophrasti; conditions: for Velvetleaf plant response rating: scale 0 to 100 (0 no effect, 100 complete control); for Plant response rating, Velvetleaf: scale 0 to 100, 0 no effect, 100 complete control
Outline: as §1

sandbur = assay: Test E preemergence; type: in vivo, Cenchrus echinatus; conditions: for Sandbur plant response rating: scale 0 to 100 (0 no effect, 100 complete control); for Plant response rating, Sandbur: scale 0 to 100, 0 no effect, 100 complete control
Outline: as §1

dayflower = assay: Test E preemergence; type: in vivo, Commelina virginica; conditions: for Dayflower, VA plant response rating: scale 0 to 100 (0 no effect, 100 complete control); for Plant response rating, Dayflower, VA: scale 0 to 100, 0 no effect, 100 complete control
Outline: as §1

waterhemp = assay: Test E preemergence; type: in vivo, Amaranthus rudis; conditions: for Waterhemp plant response rating: scale 0 to 100 (0 no effect, 100 complete control); for Plant response rating, Waterhemp: scale 0 to 100, 0 no effect, 100 complete control
Outline: as §1

Brazilian crabgrass [4] = assay: Test E postemergence; type: in vivo, Digitaria horizontalis; conditions: Postemergence, scale 0 to 100
Outline: as §1

wild poinsettia = assay: Test E preemergence; type: in vivo, Euphorbia heterophylla; conditions: for Poinsettia, Wild plant response rating: scale 0 to 100 (0 no effect, 100 complete control); for Plant response rating, Poinsettia, Wild: scale 0 to 100, 0 no effect, 100 complete control
Outline: as §1

## N#Cc1cccc(Oc2ncc(Cl)cn2)c1-n1cc(Cl)cn1 [Compound 72]
Italian ryegrass [1]; 16 g ai/ha
  Ryegrass, Italian plant response rating: 0
Italian ryegrass [1]; 31 g ai/ha
  Ryegrass, Italian plant response rating: 15
Italian ryegrass [1]; 62 g ai/ha
  Ryegrass, Italian plant response rating: 20
Italian ryegrass [1]; 125 g ai/ha
  Plant response rating, Ryegrass, Italian: 35
Italian ryegrass [1]; 250 g ai/ha
  Plant response rating, Ryegrass, Italian: 75
ragweed; 16 g ai/ha
  Ragweed plant response rating: 0
ragweed; 31 g ai/ha
  Ragweed plant response rating: 0
ragweed; 62 g ai/ha
  Ragweed plant response rating: 5
ragweed; 125 g ai/ha
  Plant response rating, Ragweed: 50
ragweed; 250 g ai/ha
  Plant response rating, Ragweed: 95
Field bindweed; 62 g ai/ha
  Plant response rating, Field Bindweed: 70
Field bindweed; 125 g ai/ha
  Plant response rating, Field Bindweed: 80
soybean; 16 g ai/ha
  Soybean plant response rating: 0
soybean; 31 g ai/ha
  Soybean plant response rating: 10
soybean; 62 g ai/ha
  Soybean plant response rating: 25
soybean; 125 g ai/ha
  Plant response rating, Soybean: 70
soybean; 250 g ai/ha
  Plant response rating, Soybean: 90
Brazilian crabgrass [2]; 16 g ai/ha
  Crabgrass, Brazil plant response rating: 90
Brazilian crabgrass [2]; 31 g ai/ha
  Crabgrass, Brazil plant response rating: 98
Brazilian crabgrass [2]; 62 g ai/ha
  Crabgrass, Brazil plant response rating: 100
Brazilian crabgrass [2]; 125 g ai/ha
  Plant response rating, Crabgrass, Brazil: 100
Brazilian crabgrass [2]; 250 g ai/ha
  Plant response rating, Crabgrass, Brazil: 100
Italian ryegrass [3]; 62 g ai/ha
  Plant response rating, Ryegrass, Italian: 0
Italian ryegrass [3]; 125 g ai/ha
  Plant response rating, Ryegrass, Italian: 5
Palmer pigweed; 16 g ai/ha
  Pigweed, Palmer plant response rating: 95
Palmer pigweed; 31 g ai/ha
  Pigweed, Palmer plant response rating: 100
Palmer pigweed; 62 g ai/ha
  Pigweed, Palmer plant response rating: 100
Palmer pigweed; 125 g ai/ha
  Plant response rating, Pigweed, Palmer: 100
Palmer pigweed; 250 g ai/ha
  Plant response rating, Pigweed, Palmer: 100
Giant foxtail; 16 g ai/ha
  Foxtail, Giant plant response rating: 35
Giant foxtail; 31 g ai/ha
  Foxtail, Giant plant response rating: 35
Giant foxtail; 62 g ai/ha
  Foxtail, Giant plant response rating: 95
Giant foxtail; 125 g ai/ha
  Plant response rating, Foxtail, Giant: 98
Giant foxtail; 250 g ai/ha
  Plant response rating, Foxtail, Giant: 100
morningglory; 16 g ai/ha
  Morningglory plant response rating: 0
morningglory; 31 g ai/ha
  Morningglory plant response rating: 0
morningglory; 62 g ai/ha
  Morningglory plant response rating: 15
morningglory; 125 g ai/ha
  Plant response rating, Morningglory: 15
morningglory; 250 g ai/ha
  Plant response rating, Morningglory: 35
velvetleaf; 16 g ai/ha
  Velvetleaf plant response rating: 0
velvetleaf; 31 g ai/ha
  Velvetleaf plant response rating: 0
velvetleaf; 62 g ai/ha
  Velvetleaf plant response rating: 40
velvetleaf; 125 g ai/ha
  Plant response rating, Velvetleaf: 65
velvetleaf; 250 g ai/ha
  Plant response rating, Velvetleaf: 100
sandbur; 16 g ai/ha
  Sandbur plant response rating: 25
sandbur; 31 g ai/ha
  Sandbur plant response rating: 40
sandbur; 62 g ai/ha
  Sandbur plant response rating: 30
sandbur; 125 g ai/ha
  Plant response rating, Sandbur: 35
sandbur; 250 g ai/ha
  Plant response rating, Sandbur: 50
dayflower; 16 g ai/ha
  Dayflower, VA plant response rating: 0
dayflower; 31 g ai/ha
  Dayflower, VA plant response rating: 0
dayflower; 62 g ai/ha
  Dayflower, VA plant response rating: 35
dayflower; 125 g ai/ha
  Plant response rating, Dayflower, VA: 65
dayflower; 250 g ai/ha
  Plant response rating, Dayflower, VA: 95
waterhemp; 16 g ai/ha
  Waterhemp plant response rating: 95
waterhemp; 31 g ai/ha
  Waterhemp plant response rating: 98
waterhemp; 62 g ai/ha
  Waterhemp plant response rating: 100
waterhemp; 125 g ai/ha
  Plant response rating, Waterhemp: 100
waterhemp; 250 g ai/ha
  Plant response rating, Waterhemp: 100
Brazilian crabgrass [4]; 62 g ai/ha
  Plant response rating, Crabgrass, Brazil: 10
Brazilian crabgrass [4]; 125 g ai/ha
  Plant response rating, Crabgrass, Brazil: 20
Wild poinsettia; 16 g ai/ha
  Poinsettia, Wild plant response rating: 15
Wild poinsettia; 31 g ai/ha
  Poinsettia, Wild plant response rating: 5
Wild poinsettia; 62 g ai/ha
  Poinsettia, Wild plant response rating: 15
Wild poinsettia; 125 g ai/ha
  Plant response rating, Poinsettia, Wild: 70
Wild poinsettia; 250 g ai/ha
  Plant response rating, Poinsettia, Wild: 70
